We go through one compound from patent publication US20230295163A1, “TETRACYCLIC DERIVATIVE, METHOD FOR PREPARING SAME AND USE THEREOF IN MEDICINE” (ZHEJIANG HISUN PHARMACEUTICAL CO., LTD., priority 2020, published 2023).

The target of the test is T1, recombinant human KRAS G12C protein (Homo sapiens, UniProt P01116, G12C).
T1 construct: The recombinant human KRAS G12C protein (aa1-169)
In words: Covalent binding ability to KRAS G12C protein (LC-MS). As to conditions: 3 μM, 5 min. As for the experimental part: The following method was used to determine the covalent binding ability of the compounds of the present disclosure to recombinant human KRAS G12C protein under in vitro conditions.
The experimental procedure is briefly described as follows: The recombinant human KRAS G12C protein (aa1-169) was prepared with a reaction buffer (20 mM HEPES, 150 mM NaCl, 1 mM MgCl2, 1 mM DTT) at a concentration of 4 μM for later use. The test compound was prepared with DMSO into a 10 mM stock solution, which was then diluted with the reaction buffer for later use. First, 1.5 μL of the test compound diluted with the reaction buffer was added to each well (a final concentration of the reaction system was […]), then added with 23.5 μL of the reaction buffer, mixed well, then added with 25 μL of 4 μM recombinant human KRAS G12C protein for 5 min of incubation at room temperature, and added with 5 μL of acetic acid to stop the reaction. The samples were transferred to injection vials. The ratios of covalent binding between the test compounds and KRAS G12C protein were detected by Agilent 1290/6530 instrument, and the samples were analyzed in a liquid chromatography column (XBridge Protein BEH C4, 300 Å, 3.5 μm, 2.1 mm×50 mm). In the detection process, mobile phase A was 0.1% formic acid aqueous solution, mobile phase B was acetonitrile, the mobile phase elution program was as follows: mobile phase A was kept at 95% at 0-0.5 min, changed to 30% at 2.5 min for 0.5 min, and changed to 95% at 3.1 min for 1.9 min; and flow rate was 0.5 mL/min. Finally, the data was analyzed by MassHunter Workstation Software Bioconfirm Version B.08.00 to obtain the covalent binding rate between the test compound at a concentration of 3 μM and KRAS G12C protein under 5 min of incubation.

T1 sequence (P01116 1-169 isoform P01116-2 G12C): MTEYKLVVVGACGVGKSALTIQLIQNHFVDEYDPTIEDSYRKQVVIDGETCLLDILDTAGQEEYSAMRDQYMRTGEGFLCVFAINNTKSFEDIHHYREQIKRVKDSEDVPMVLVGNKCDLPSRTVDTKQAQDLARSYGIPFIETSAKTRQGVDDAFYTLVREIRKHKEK

Consider `C=CC(=O)N1C[C@@H]2C(=O)N(C)c3c(c4cc(Cl)c(-c5c(O)cccc5F)nc4n(-c4c(SC)ccnc4C(C)C)c3=O)N2C[C@H]1C` (single isomer, unassigned) [Compound 17], for which the “Covalent binding rate (%)” value is recorded as 63.4%.
